Assay results taken from patent US9351951B2, “Prevention of proteomic and genomic damage by dicarbonyl substrates of Glo 1” (University of Warnick, priority 2010, dated 2016).

Assays:
BJ fibroblasts [1] = settings: 2 μM SFN, after 48 h
GLO1 promoter (ARE1) = settings: ARE1 alone, HepG2 cells, 4 μM SFN 24 h
Procedure: Transfection and Luciferase Assay of Custom Vectors For luciferase assays, 2×10^5 HepG2 cells per well were plated into 24-well plates and cultured overnight. The cells were transfected with 0.5 μg reporter vector and 10 ng pRL-TK plasmid using Lipofectamine 2000 according to manufacture's protocol. The empty pGL3-basic vector was used as control. After 24 h, 4 μM SFN was added to the cells and vehicle (DMSO) added to control. After 24 h, the cells were washed with PBS and luciferase activity assay performed immediately or samples stored at −80° C. until analysis. For the reporter assay, 100 μl Cell Culture Lysis Reagent (CCLR, Promega) was added to cell extracts and shaken gently for 30 min. The activity mixture was centrifuged (12,000 g, 5 min, 4° C.) and an aliquot (20 μl) of supernatant used in the reporter assay. The luciferase activity was determined using a Dual Luciferase Reporter Assay System (Promega). The relative luciferase activities were normalized by co-transfection of pRL-TK vector.

HepG2 cells [2] = settings: 2 μM SFN
Procedure: (§1) Other Methods. Activity of Glo1 was determined by measuring the initial rate of isomerisation of the hemithioacetal formed from methylglyoxal and GSH to S-D-lactoylglutathione followed spectrophotometrically at 240 nm.^43 The concentration of MG in cells and culture medium was determined by stable isotopic dilution analysis liquid chromatography with tandem mass spectrometric detection.^4 ROS formation was assessed with dichlorodihydrofluorescein diacetate (H2DCFDA), monitoring the generation of dichlorofluorescein (DCF) fluorescence. HepG2 cells and BJ fibroblasts were incubated with H2DCFDA for 30 min, washed in PBS and DCF fluorescence quantified by flow cytometry.^44

methylglyoxal = settings: 24 h post-treatment
Procedure: as §1

Glo1 [3] = settings: 2 μM SFN, over 16 h, BJ fibroblasts
Procedure: (§2) Cell Culture Human hepatoma HepG2 cells and human BJ fibroblasts were cultured in Eagle's Minimum Essential Medium (MEM) medium with 10% foetal calf serum (FCS) and 2 mM glutamine under an atmosphere of 5% CO2 in air, 100% humidity and 37° C. Where sulforaphane was used, the R-stereoisomer was used. R-Sulforaphane (SFN) and allyl isothiocyanate (AITC) were purchased from Sigma-Aldrich (Poole, Dorset, UK).

Glo1 [4] = experiment: Glo1 mRNA by real-time RT-PCR in cultured cells; format: cell-based, human; settings: for induction of Glo1 expression: known nrf2 activators, data not shown
Procedure: as §2
Real-Time PCR Total RNA was extracted from cultured cells which were treated with SFN, AITC using RNeasy Mini Kit (QIAGEN). cDNAs were synthesized with oligo (dT)18 primer and BioScript reverse transcriptase (BIOLINE). Human GLO1 and ACTB (β-actin reference gene) mRNA were quantified by real-time RT-PCR SYBR green method on ABI 7500 fast real-time PCR system. The following primers were used to amplify GLO1, forward 5′-[…]-3′ (SEQ ID NO: 5) and reverse 5′-[…]-3′ (SEQ ID NO: 6). The reference gene ACTB was amplified with primers 5′-[…]-3′ SEQ ID NO: 7)(forward) and 5′-[…]-3′ (SEQ ID NO: 8)(reverse).

HMEC-1 endothelial cells = settings: collagen conditioned with medium from BJ cells incubated with 2 μM SFN for 24 h
Procedure: The culture medium was then removed, incubated with human type IV collagen for 24 h and human microvascular endothelial HMEC-1 cell attachment studied as described^13a. […] The medium was then removed and added to wells of a 96-well plate (96-well; Costar; Corning) that had be prior coated type IV collagen. For the coating, 100-□l of 100 µg/ml of type IV collagen (human placental, type IV, pepsin extracted) was added to each well and incubated for 24 h at 37° C. Wells were then washed with phosphate buffered saline. Collagen coated wells were incubated with medium from BK cell cultures for 24 h at 37° C. and then washed with phosphate buffered saline. HMEC-1 endothelial cells (2.5×10^4 cells/well) were plated on to the collagen substrates and incubated for 1 h at 37° C. Non-adherent cells were removed and adherent cells were quantified by staining with 3-(4,5-dimethylthiazole-2-yl)-2,5-diphenyltetrazolium bromide, lysed with dimethylsulfoxide and the blue formazan product detected, by absorbance at 560 nm (Paul, R G, Bailey, A J: The effect of advanced glycation end-product formation upon cell-matrix interactions. Int J Biochem Cell Biol 31: 653-660, 2004).

BJ fibroblasts [5] = experiment: cells; settings: Homo sapiens, Fibroblast, 24 h, read-out: cell viability during exposure to hydrogen peroxide
BJ fibroblasts [6] = test system: BJ fibroblasts
Description: Normal ageing may be modelled in human cells in vitro by cell senescence.

HepG2 cells [7] = experiment: Frameshift mutation-dependent GFP reporter in HepG2 cells; format: cell-based, human; settings: 400 μM MG
Procedure: The pEGFP-CA/T12 vector is a reporter for efficiency of transfection while pEGFP-CA13 vector is a reporter of frameshift mutation induced by MG.^30 HepG2 cells (2×10^5 cells/well) were cultured in 12-well plates for 24 h, the MEM medium removed, the cells washed with serum free medium and replaced with DNA/lipofectamine complexes in serum free medium—transfection medium (Lipofectamine 2000 reagent, 2 μl; (1.8 μg pEGFP-CA13 or pEGFP-CA/T12; 2.0 ml serum free medium)—and incubated for 5 h at 37° C. The transfection medium was removed and replaced with complete MEM medium supplemented with 10% FCS and 2 mM glutamine) and incubated for 48 h. Transfection efficiency was assessed quantitatively by flow cytometry. […] Thereafter, cells were washed with phosphate-buffered saline (PBS) and analysed for GFP expression by flow cytometry.

HepG2 cells [8] = experiment: Growth inhibition of HepG2 cells by MG; format: cell-based; settings: Homo sapiens, n=8, read-out: median growth inhibitory concentration
BJ fibroblasts [9] = settings: scavenging of MG; reference 28; cited from earlier work
in vitro = settings: human, BJ fibroblasts

Q: Which results are given for `C[S@@+]([O-])CCCCN=C=S` [SFN, R-Sulforaphane]?
A: cellular protein MG-H1 residue content (BJ fibroblasts [1]): decrease; Glo1 transcriptional response of luciferase reporter (GLO1 promoter (ARE1)): maximal induction; endogenous ROS (HepG2 cells [2]): decrease; ROS induced by exogenous hydrogen peroxide (HepG2 cells [2]; 20 μM hydrogen peroxide): decrease; concentration of methylglyoxal in the cell culture (methylglyoxal; HepG2 culture medium): marked decrease; concentration of MG in cells (methylglyoxal; BJ fibroblasts, 2 μM SFN): decreased concentration; concentration of MG in the cell culture medium (methylglyoxal; BJ fibroblasts, 2 μM SFN): decreased concentration; Glo1 protein (Glo1 [3]): increase in Glo1 protein progressively; time post-treatment at which Glo1 mRNA maximised (Glo1 [4]; 2 μM SFN time course, BJ fibroblasts): 12 h; Glo1 mRNA (Glo1 [4]; dose response, BJ fibroblasts): dose-dependent increase; HMEC-1 endothelial cell adhesion to type IV collagen (HMEC-1 endothelial cells): Improved; viability at 0.5 µM (BJ fibroblasts [5]): 88%; effect on Hayflick limit (BJ fibroblasts [6]; BJ cells, 1.0 μM SFN per passage from cumulative PDL 30): allowed escape from the Hayflick limit; Hayflick limit, cumulative PDL (BJ fibroblasts [6]; BJ cells, 2×0.5 μM SFN per passage from cumulative PDL 45, control limit PDL 49): 50.5; increase in cell number per passage (BJ fibroblasts [6]; BJ fibroblasts, 1.0 μM SFN per passage, beyond cumulative PDL 53): > 3 fold

Q: What does the source list for `CC(=O)C=O` [MG, methylglyoxal]?
A: frameshift mutation-dependent GFP (HepG2 cells [7]): increased; frameshift mutations (HepG2 cells [7]): increased; IC50 (HepG2 cells [8]): 1070 ± 80 µM

Q: For `C=CCN=C=S` [AITC, allyl isothiocyanate], which “frameshift mutations induced by MG” value (HepG2 cells [7]; prior 2 μM AITC) is on record?
A: prevented

Q: And the “frameshift mutation-dependent GFP induced by MG” value (HepG2 cells [7]; prior exposure to 2 μM AITC)?
A: prevented

Q: For `OCc1c[nH]c2ccccc12` [indole-3-carbinol], which “induction of Glo1 expression” value (Glo1 [4]) is on record?
A: not potent inducers

Q: Which “induction of Glo1 expression” value (Glo1 [4]) does the source give for `C=CCSSCC=C` [diallyldisulphide] here?
A: not potent inducers

Q: Which “effect on cytotoxicity induced by exogenous hydrogen peroxide in vitro” value (BJ fibroblasts [9]) does the source give for `N=C(N)NN` [aminoguanidine] here?
A: protective

Q: Which “induction of Glo1 expression” value (Glo1 [4]) does the source give for `CC(C)(C)c1cc(O)ccc1O` [tert-butylhydroquinone] here?
A: not potent inducers

Q: For `OO` [hydrogen peroxide], which viability at 200 μM (in vitro) is on record?
A: 74%
